Test results published in US20120322060A1, “DIAGNOSIS AND MONITORING TREATMENT OF PSYCHIATRIC DISEASES WITH SPADIN AND RELATED METHODS” (CENTRE NATIONAL DE LE RECHERCHE SCIENTIFIQUE - CNRS -, priority 2011, published 2012).
“Also recorded” adds a separate entry of the source. No end group written: not given here.

Columns and labels:
rats = experiment: Forced Swim Test (FST) in rats; format: in vivo, rat; conditions: acute i.p. 10^-5 M, 30 min before test
Method: Male Sprague-Dawley rats (Janvier, France), weighing 250-300 g were also used for the FST. Rats experienced a pretest session followed 24 h later by a test session. For both the pretest and the test sessions, conducted under low illumination (15 W), the animals were placed in a plastic cylindrical tank (50 cm high by 20 cm in diameter) filled with 40 cm deep water at 24° C. The pretest was carried out for 15 minutes and the test for 5 minutes in the same tank. The total period of immobility was analyzed during the last 4 min.

DRN 5-HT neurons = experiment: Extracellular unitary recordings of DRN 5-HT neurons in mice; format: in vivo, mouse; conditions: 10^-5 M in 100 μl bolus i.p.
Method: As previously described, single-barreled glass micropipettes (recording electrodes) were filled with a 2 M NaCl solution saturated with Fast Green FCF, resulting in an impedance of 2-5 MΩ. Mice were anaesthetized with chloral hydrate (400 mg/kg, i.p., using a 2% solution), and placed in a stereotaxic frame equipped with the Stoelting “just for mouse” adaptor. Electrodes were positioned 0.5-1 mm posterior to the interaural line on the midline, and were then lowered into the DRN, usually attained at a depth of 2.5 mm from the brain surface. 5-HT neurons were then encountered over a maximal distance of 1 mm. They were identified using the following criteria: a slow (0.5-2.5 Hz) and regular firing rate and long-duration (0.8-1.2 ms) action potentials, with a positive-negative spike. Spikes were computed by using the Spike 2 software, so that the firing rate was calculated as the mean number of events occurring within a 10 s period. For each neuron, the discharge was monitored during 60 seconds. Each mouse received either spadin (10^−5 M in a 100 μl bolus) or its vehicle (saline). Starting 30 min after the injection, 3 to 4 successive descents were performed along the DRN, for a total of 4-8 cells recorded per animal. Recordings were performed for a maximal duration of 4 hours post-injection.

TREK-1 = molecular target: T1, TREK-1 (Mus musculus, UniProt P97438); experiment: Whole-cell patch-clamp of native currents on β-TC3 cell line; format: cell-based; set-up: expressed in transfected cells; host or cells: COS-7 (DEAE-dextran transfection); conditions: 1 μM spadin; read-out: inhibition of endogenous TREK-1
T1 sequence (P97438 1-426): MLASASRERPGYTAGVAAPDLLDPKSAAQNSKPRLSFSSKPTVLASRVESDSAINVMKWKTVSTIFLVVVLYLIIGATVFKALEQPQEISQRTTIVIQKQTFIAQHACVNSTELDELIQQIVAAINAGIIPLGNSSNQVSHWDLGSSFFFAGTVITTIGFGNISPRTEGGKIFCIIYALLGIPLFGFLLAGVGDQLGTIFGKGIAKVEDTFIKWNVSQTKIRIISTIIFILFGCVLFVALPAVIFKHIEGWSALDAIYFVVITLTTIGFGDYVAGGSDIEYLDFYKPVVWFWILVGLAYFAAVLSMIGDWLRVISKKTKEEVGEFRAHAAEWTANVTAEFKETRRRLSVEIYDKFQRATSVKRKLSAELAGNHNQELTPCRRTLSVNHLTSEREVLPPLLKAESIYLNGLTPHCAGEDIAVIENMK
Method: Native currents elicited by these cells were recorded in the whole-cell configuration of the patch-clamp technique (as described for COS-7 cells) and in the presence of K^+ blockers.

**Q.** What does the source list for APLPRWSGPIGVSWGLR [spadin]?
**A.** immobility time versus saline (rats): significantly reduced immobility time; also recorded: shorter time of immobility; increase of DRN 5-HT neuron firing rate versus vehicle (DRN 5-HT neurons): 146%; mean firing rate of DRN 5-HT neurons (DRN 5-HT neurons): 3.1±0.7 Hz; inhibition at 1 µM (TREK-1): 36%
